In patent US20080221083A1, “Heterobicyclic metalloprotease inhibitors” (priority 2006, published 2008):
pIC50: −log10 of the molar value.

Key:
[1] = target: T1, catalytic domain of MMP-3 enzyme (Homo sapiens, UniProt P08254); test: Assay for determining MMP-3 inhibition; assay type: biochemical; details: fluorescent substrate NFF-3, pH 6.0; read-out: Summary of MMP-3 Activity for Compounds (IC50 MMP-3), Group
T1 construct: the catalytic domain of MMP-3 enzyme (Biomol, Cat. No. SE-109); purchased Biomol SE-109
T1 sequence (P08254 100-272 limits assumed): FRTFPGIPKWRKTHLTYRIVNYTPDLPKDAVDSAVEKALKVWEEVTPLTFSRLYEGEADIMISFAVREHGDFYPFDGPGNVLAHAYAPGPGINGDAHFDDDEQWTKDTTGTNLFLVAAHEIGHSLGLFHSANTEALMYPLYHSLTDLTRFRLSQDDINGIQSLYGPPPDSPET
Procedure: Assay for Determining MMP-3 Inhibition
The typical assay for MMP-3 activity is carried out in assay buffer comprised of 50 mM MES, pH 6.0, 10 mM CaCl2 and 0.05% Brij-35. Different concentrations of tested compounds are prepared in assay buffer in 50 μl aliquots. 10 μl of a 100 nM stock solution of the catalytic domain of MMP-3 enzyme (Biomol, Cat. No. SE-109) is added to the compound solution. The mixture of enzyme and compound in assay buffer is thoroughly mixed and incubated for 10 min at room temperature. Upon the completion of incubation, the assay is started by addition of 40 μl of a 12.5 μM stock solution of NFF-3 fluorescent substrate (Calbiochem, Cat. No. 480455). The time-dependent increase in fluorescence is measured at the 330 nm excitation and 390 nm emission by an automatic plate multireader. The IC50 values are calculated from the initial reaction rates.

[2] = target: T2, catalytic domain of MMP-13 enzyme (Homo sapiens, UniProt P45452); test: Assay for determining MMP-13 inhibition; assay type: biochemical; details: MMP-13 fluorescent substrate, pH 7.5; read-out: Summary of MMP-13 Activity for Compounds (IC50 MMP-13), Group
T2 construct: catalytic domain of MMP-13 enzyme (produced by Alantos or commercially available from Invitek (Berlin), Cat. No. 30100812); purchased Invitek (Berlin) 30100812
Procedure: Assay for Determining MMP-13 Inhibition
The typical assay for MMP-13 activity is carried out in assay buffer comprised of 50 mM Tris, pH 7.5, 150 mM NaCl, 5 mM CaCl2 and 0.05% Brij-35. Different concentrations of tested compounds are prepared in assay buffer in 50 μl aliquots. 10 μl of a 50 nM stock solution of catalytic domain of MMP-13 enzyme (produced by Alantos or commercially available from Invitek (Berlin), Cat. No. 30100812) is added to the compound solution. The mixture of enzyme and compound in assay buffer is thoroughly mixed and incubated for 10 min at room temperature. Upon the completion of incubation, the assay is started by addition of 40 μl of a 12.5 μM stock solution of MMP-13 fluorescent substrate (Calbiochem, Cat. No. 444235). The time-dependent increase in fluorescence is measured at the 320 nm excitation and 390 nm emission by automatic plate multireader. The IC50 values are calculated from the initial reaction rates.

| Compound | pIC50 [1] | pIC50 [2] |
| --- | --- | --- |
| C[C@@H](NC(=O)c1c[nH]c2c(C(=O)NCc3ccc4c(c3)NC(=O)CO4)ncnc12)c1ccccc1 [Example 60] | 4.70 to 7.00 | – |
| CC(C)NC(=O)c1c[nH]c2c(C(=O)NCc3ccc4c(c3)NC(=O)CO4)ncnc12 [Example 32] | 4.70 to 7.00 | – |
| O=C1COc2ccc(CNC(=O)c3ncnc4c(C(=O)NC5CCCC5)c[nH]c34)cc2N1 [Example 33] | 7.00 to 8.52 | – |
| O=C(NCc1ccccc1)c1c[nH]c2c(C(=O)NCc3ccc(F)cc3)ncnc12 [Example 6] | 7.00 to 8.52 | 4.70 to 7.00 |
| O=C1COc2ccc(CNC(=O)c3ncnc4c(C(=O)NCC5(O)CCCCC5)c[nH]c34)cc2N1 [Example 40] | 4.70 to 7.00 | 4.70 to 7.00 |
| O=C1COc2ccc(CNC(=O)c3ncnc4c(C(=O)NCC5CCCCC5)c[nH]c34)cc2N1 [Example 35] | 7.00 to 8.52 | 4.70 to 7.00 |
| O=C1COc2ccc(CNC(=O)c3ncnc4c(C(=O)N5CCC(O)CC5)c[nH]c34)cc2N1 [Example 42] | 4.70 to 7.00 | – |
| CNC(=O)c1c[nH]c2c(C(=O)NCc3ccc4c(c3)NC(=O)CO4)ncnc12 [Example 41] | 4.70 to 7.00 | – |
| COc1cccc(CNC(=O)c2c[nH]c3c(C(=O)NCc4ccc5c(c4)NC(=O)CO5)ncnc23)c1 [Example 45] | 4.70 to 7.00 | 4.70 to 7.00 |
| O=C1CN(C(=O)c2c[nH]c3c(C(=O)NCc4ccc5c(c4)NC(=O)CO5)ncnc23)CCN1 [Example 62] | 7.00 to 8.52 | 4.70 to 7.00 |
| COC(=O)[C@@H]1C[C@@H](O)CN1C(=O)c1c[nH]c2c(C(=O)NCc3ccc4c(c3)NC(=O)CO4)ncnc12 [Example 52] | 7.00 to 8.52 | 4.70 to 7.00 |
| CC(C)(CO)NC(=O)c1c[nH]c2c(C(=O)NCc3ccc4c(c3)NC(=O)CO4)ncnc12 [Example 51] | 7.00 to 8.52 | 4.70 to 7.00 |
| CCOC(=O)CC1C(=O)NCCN1C(=O)c1c[nH]c2c(C(=O)NCc3ccc4c(c3)NC(=O)CO4)ncnc12 (stereo not shown) [Example 63] | 4.70 to 7.00 | – |
| CCC(CC)NC(=O)c1c[nH]c2c(C(=O)NCc3ccc4c(c3)NC(=O)CO4)ncnc12 [Example 31] | 4.70 to 7.00 | 4.70 to 7.00 |
| C[C@H](NC(=O)c1c[nH]c2c(C(=O)NCc3ccc4c(c3)NC(=O)CO4)ncnc12)c1ccccc1 [Example 61] | 4.70 to 7.00 | – |
| CC(C)(C)OC(=O)N1CC2CC1CN2C(=O)c1c[nH]c2c(C(=O)NCc3ccc4c(c3)NC(=O)CO4)ncnc12 (stereo not shown) [Example 50] | 7.00 to 8.52 | 4.70 to 7.00 |
| CN(Cc1ccccc1)C(=O)c1c[nH]c2c(C(=O)NCc3ccc4c(c3)NC(=O)CO4)ncnc12 [Example 46] | 7.00 to 8.52 | 4.70 to 7.00 |
| O=C1COc2ccc(CNC(=O)c3ncnc4c(C(=O)NCc5ccccc5)c[nH]c34)cc2N1 [Example 34] | 7.00 to 8.52 | 4.70 to 7.00 |
| CCCN(CCC)C(=O)c1c[nH]c2c(C(=O)NCc3ccc4c(c3)NC(=O)CO4)ncnc12 [Example 48] | 7.00 to 8.52 | – |
| CCCCN(CC)C(=O)c1c[nH]c2c(C(=O)NCc3ccc4c(c3)NC(=O)CO4)ncnc12 [Example 47] | 7.00 to 8.52 | – |
